The numbers were not newly measured in PMC12697872, “Rethinking the AI Paradigm for Solubility Prediction of Drug‑Like Compounds with Dual‐Perspective Modeling and Experimental Validation” (Advanced Science, 2025), which cites them from elsewhere.

For data set [1] the following is noted: cited from earlier work; for LogS(mol/L): SC2-1 dataset (Second Solubility Challenge, tight subset), aqueous solubility; for Class: SC2-1 dataset, aqueous solubility class 0-6.
The conditions of data set [2]: experimental aqueous solubility as logS, cited from earlier work.
[3] abbreviates: sheet "DrugBank" of Supplement 2, ref DrugBank.

Where two headings read alike, the source gives them in different places.

With `CC1=C(C(=O)O)N2C(=O)[C@@H](NC(=O)[C@H](N)C3=CCC=CC3)[C@H]2SC1`, in data set [1], the “LogS(mol/L)” value was -1.18 mol/L and the Class is on record as 3 (Sparingly soluble (3)).

Regarding `CCOc1nc2cccc(C(=O)OC(C)OC(=O)OC3CCCCC3)c2n1Cc1ccc(-c2ccccc2-c2nn[nH]n2)cc1` (stereo not drawn), in data set [1], the “LogS(mol/L)” value was -6.79 mol/L and the Class is on record as 6 (Practically insoluble or insoluble (6)).

Consider `CC(=O)OCC(=O)[C@@]1(OC(C)=O)[C@@H](C)C[C@H]2[C@@H]3C[C@H](F)C4=CC(=O)C=C[C@]4(C)[C@@]3(F)[C@@H](O)C[C@@]21C`, for which, in data set [1], the “LogS(mol/L)” value is reported as -4.82 mol/L and the Class is listed as 6 (Practically insoluble or insoluble (6)).

Regarding `CO/N=C(\C(=O)N[C@@H]1C(=O)N2C(C(=O)O)=C(CSc3nnnn3C)CS[C@H]12)c1csc(N)n1`, in data set [1], the “LogS(mol/L)” value was -3.27 mol/L and the Class is listed as 5 (Very slightly soluble (5)).

On to `COc1cc(N)c(Cl)cc1C(=O)NC1CCN(CCCOc2ccc(F)cc2)CC1OC` (stereo not drawn), for which, in data set [1], the “LogS(mol/L)” value is recorded as -6.78 mol/L and the Class was 6 (Practically insoluble or insoluble (6)).

For the compound `C/C=C/C1=C(C(=O)O)N2C(=O)[C@@H](NC(=O)[C@H](N)c3ccc(O)cc3)[C@H]2SC1`, in data set [1], the “LogS(mol/L)” value was -1.68 mol/L and the Class was 4 (Slightly soluble (4)).

Take `C[C@]12C[C@H](O)[C@H]3[C@@H](CCC4=CC(=O)CC[C@@]43C)[C@@H]1CC[C@@H]2C(=O)CO`: in data set [1], the “LogS(mol/L)” value is recorded as -3.29 mol/L and the Class was 5 (Very slightly soluble (5)).

Regarding `C[C@@H]1C[C@H]2[C@@H]3CCC4=CC(=O)C=C[C@]4(C)[C@@]3(F)[C@@H](O)C[C@]2(C)[C@@]1(O)C(=O)CO`, in data set [1], the “LogS(mol/L)” value is -3.56 mol/L and the Class is recorded as 5 (Very slightly soluble (5)).

With `Cc1ccc(-c2cc(C(F)(F)F)nn2-c2ccc(S(N)(=O)=O)cc2)cc1`, in data set [1], the “LogS(mol/L)” value was -5.89 mol/L and the Class was 6 (Practically insoluble or insoluble (6)).

On to `NS(=O)(=O)c1cc2c(cc1Cl)NC(CSCc1ccccc1)=NS2(=O)=O`, for which, in data set [1], the “LogS(mol/L)” value was -4.84 mol/L and the Class is 6 (Practically insoluble or insoluble (6)).

With `CCOC(=O)c1ccc(N)cc1` [benzocaine], the ex_logS in data set [2] (setting [3]) is -2.32.

Turning to `O=C(O)[C@H]1O[C@@H](O)[C@H](O)[C@@H](O)[C@@H]1O` [beta-D-glucuronic acid], the ex_logS in data set [2] (setting [3]) is 0.3976.

As to `c1ccc(-c2ccc(C(c3ccccc3)n3ccnc3)cc2)cc1` (stereo not drawn) [bifonazole], in data set [2] (setting [3]), the ex_logS is given as -5.95.

Turning to `O=C1CN=C(c2ccccn2)c2cc(Br)ccc2N1` [bromazepam], in data set [2] (setting [3]), the ex_logS was -3.48.

For the compound `COc1ccc2c3c1O[C@H]1[C@@H](O)C=C[C@H]4[C@@H](C2)N(C)CC[C@@]341` [codeine], in data set [2] (setting [3]), the ex_logS is on record as -1.52.

As to `C[C@]12C[C@H](O)[C@H]3[C@@H](CCC4=CC(=O)CC[C@@]43C)[C@@H]1CC[C@@H]2C(=O)CO` [corticosterone], the ex_logS in data set [2] (setting [3]) is -3.24.

In the case of `CCOC(=O)c1ccc(O)cc1` [ethyl-p-hydroxybenzoate], in data set [2] (setting [3]), the ex_logS was -2.35.

Consider `O=C(O)Cc1ccccc1Oc1ccc(Cl)cc1Cl` [fenclofenac], for which the ex_logS in data set [2] (setting [3]) is recorded as -3.85.

In the case of `OC(Cn1cncn1)(Cn1cncn1)c1ccc(F)cc1F` [fluconazole], the ex_logS in data set [2] (setting [3]) is -1.8.

Turning to `CC(C(=O)O)c1ccc(N2Cc3ccccc3C2=O)cc1` (stereo not drawn) [indoprofen], the ex_logS in data set [2] (setting [3]) is recorded as -4.82.

Take `O=C1NC(=O)C(c2ccccc2)(c2ccccc2)N1` [phenytoin]: the ex_logS in data set [2] (setting [3]) is -3.99.

For `CCN(CC)CCOC(=O)c1ccc(N)cc1` [procaine], the ex_logS in data set [2] (setting [3]) is -1.78.

For the compound `CC(=O)[C@H]1CC[C@H]2[C@@H]3CCC4=CC(=O)CC[C@]4(C)[C@H]3CC[C@]12C` [progesterone], in data set [2] (setting [3]), the ex_logS is -4.42.

Regarding `CC(=O)CC(c1ccccc1)c1c(O)c2ccccc2oc1=O` (stereo not drawn) [warfarin], in data set [2] (setting [3]), the ex_logS is recorded as -4.26.

Take Cyanocobalamin: the ex_logS in data set [2] (sheet "DrugBank", ref DrugBank database) was -2.035.

With Streptozocin, the ex_logS in data set [2] (setting [3]) was -1.7186.
